Results as given in patent US20090312265A1, “NOVEL ANTIMICROBIAL PEPTIDES AND USE THEREOF” (priority 2006, published 2009).
No end group written: not given here.

Tests used:
[1] = Liposome leakage assay (carboxyfluorescein release), PA liposomes; conditions: scale: Triton X100 = 100% release; for PA + NaCl (CF release, liposome leakage): 10 mM Tris pH 7.4 with additional 150 mM NaCl; for PA − NaCl (CF release, liposome leakage): 10 mM Tris pH 7.4 without NaCl
Method: (§1) Dry lipid films were prepared by dissolving either dioleoylphosphatidylcholine (Avanti Polar Lipids, Alabaster, Ala.) (60 mol %) and cholesterol (Sigma, St Louis, Mo.) (40 mol %), or dioleoylphosphatidylcholine (30 mol %), dioleoylphosphatidic acid (Avanti Polar Lipids, Alabaster, Ala.) (30 mol %) and cholesterol (40 mol %) in chloroform, and then removing the solvent by evaporation under vacuum overnight. Subsequently, buffer solution containing 10 mM Tris, pH 7.4, either with or without additional 150 mM NaCl, was added together with 0.1 M carboxyfluorescein (CF) (Sigma, St Louis, Mo.). After hydration, the lipid mixture was subjected to eight freeze-thaw cycles consisting of freezing in liquid nitrogen and heating to 60° C. Unilamellar liposomes with a diameter of about 130 nm (as found with cryo-TEM; results not shown) were generated by multiple extrusions through polycarbonate filters (pore size 100 nm) mounted in a LipoFast miniextruder (Avestin, Ottawa, Canada). Untrapped carboxyfluorescein was then removed by filtration through two subsequent Sephadex G-50 columns with the relevant Tris buffer as eluent. Both extrusion and filtration was performed at 22° C. In the liposome leakage assay, the well lmown self-quenching of CF was used. Thus, at 100 mM CF is self-quenched, and the recorded fluorescence intensity from liposomes with entrapped CF is low. […] The CF release was determined by monitoring the emitted fluorescence at 520 nm from a liposome dispersion (10 mM lipid in 10 mM Tris pH 7.4). An absolute leakage scale is obtained by disrupting the liposomes at the end of the experiment through addition of 0.8 mM Triton X100 (Sigma, St Louis, Mo.), thereby causing 100% release and dequenching of CF. A SPEX-fluorolog 1650 0.22-m double spectrometer (SPEX Industries, Edison, N.J.) was used for the liposome leakage assay (see Table 4).

[2] = Liposome leakage assay (carboxyfluorescein release), PC liposomes; conditions: scale: Triton X100 = 100% release; for PC + NaCl (CF release, liposome leakage): 10 mM Tris pH 7.4 with additional 150 mM NaCl; for PC − NaCl (CF release, liposome leakage): 10 mM Tris pH 7.4 without NaCl
Method: as §1

bacteria = test: Antibacterial activity in vitro; format: cell-based
Method: Radial diffusion assays (RDA) were performed essentially as described earlier (Lehrer, R. I., Rosenman, M., Harwig, S. S., Jackson, R. & Eisenhauer, P. (1991) Ultrasensitive assays for endogenous antimicrobial polypeptides, J Immunol Methods. 137, 167-73.).
Briefly, bacteria (E. coli, P. aeruginosa, S. aureus, B. subtilis) or fungi (C. albicans) were grown to mid-logarithmic phase in 10 ml of full-strength (3% w/v) trypticase soy broth (TSB) (Becton-Dickinson, Cockeysville, Md.). The microorganisms were washed once with 10 mM Tris, pH 7.4. 4×10^6 bacterial cfu or 1×10^5 fungal cfu was added to 5 ml of the underlay agarose gel, consisting of 0.03% (w/v) TSB, 1% (w/v) low-electroendoosmosistype (Low-EEO) agarose (Sigma, St Louise Mo.) and a final concentration of 0.02% (v/v) Tween 20 (Sigma). The underlay was poured into a Ø 85 mm petri dish. After agarose solidified, 4 mm-diameter wells were punched and 6 μl of test sample was added to each well. Plates were incubated at 37° C. for 3 hours to allow diffusion of the peptides. The underlay gel was then covered with 5 ml of molten overlay (6% TSB and 1% Low-EEO agarose in dH2O). Antimicrobial activity of a peptide is visualized as a clear zone around each well after 18-24 hours of incubation at 37° C. for bacteria and 28° C. for Candida albicans.

[3] = CD-spectroscopy, helix content; format: physicochemical; conditions: 10 mM Tris, 10 μM peptide, 37° C.; for Helix content, PA: pH 7.4, PA liposome dispersion (100 μM lipid); for Helix content, PC: pH 7.4, PC liposome dispersion (100 μM lipid); for Helix content, Buffer: pH 7.4, buffer
Method: The CD spectra of the peptides in solution were measured on a Jasco J-810 Spectropolarimeter (Jasco, U.K.). The measurements were performed at 37° C. in a 10 mm quartz cuvet under stirring and the peptide concentration was 10 μM. The effect of on peptide secondary structure of liposomes at a lipid concentration of 100 μM was monitired in the range 200-250 nm. The only peptide conformations observed under the conditions investigated were α-helix and random coil. The fraction of the peptide in α-helical conformation, Xα, is calculated from
where A is the recorded CD signal at 225 nm, and Aα and Ac are the CD signal at 225 nm for a reference peptide in 100% α-helix and 100% random coil conformation, respectively. 100% α-helix and 100% random coil references were obtained from 0.133 mM (monomer concentration) poly-L-lysine in 0.1 M NaOH and 0.1 M HCl, respectively. To account for the instrumental differences between measurements the background value (detected at 250 nm, where no peptide signal is present) was subtracted. Signals from the bulk solution were also corrected for (see Table 5).

E. coli bacteria = test: Antibacterial effect of HB-EGF in vitro (bacterial survival); format: cell-based; conditions: HB-EGF at 6 μM, 2×10^6 cfu/ml E. coli, 10 mM Tris, pH 7.4
Method: The antibacterial effect of HB-EGF (Q99075, SEQ ID NO: 19) was evaluated in vitro. 2×10^6 cfu/ml of E. coli bacteria were incubated in 50 μl with HB-EGF at 6 μM in 10 mM Tris, pH 7.4 buffer (Tris). The difference in bacterial survival was significant for the HB-EGF treated material vs. the control (no HB-EGF present), i.e. HB-EGF does in it self posses an antibacterial effect, although less pronounced than the peptides being derived from it.

Erythrocytes = format: cell-based; conditions: 1 h
Method: EDTA-blood was centrifuged at 800 g for 10 min, whereafter plasma and buffy coat were removed. The erythrocytes were washed three times and resuspended in 5% PBS, pH 7.4. The cells were then incubated with end-over-end rotation for 1 h at 37° C. in the presence of peptides (3-60 μM). 2% Triton X-100 (Sigma-Aldrich) served as positive control. The samples were then centrifuged at 800 g for 10 min. The absorbance of hemoglobin release was measured at λ 540 nm and is in the plot expressed as % of TritonX-100 induced hemolysis (FIG. 5 and table 6). The peptides in table 3A (SEQ ID No. 12-18) were evaluated as described above.

[4] = system: Gram-positive and Gram-negative bacterial, fungal, and viral pathogens; conditions: Niyonsaba and Ogawa 2005; cited from earlier work

GKRKKKGKGLGKKRDPCLRKYK (listed as Homo sapiens) [GKR22]
PA + NaCl (CF release, liposome leakage) [1]: 2 ± 1
PA − NaCl (CF release, liposome leakage) [1]: 42 ± 7
PC + NaCl (CF release, liposome leakage) [2]: 4 ± 1
PC − NaCl (CF release, liposome leakage) [2]: 72 ± 8
antibacterial activity in vitro (bacteria): shows antibacterial activity in vitro
Helix content, PA [3]: 10 ± 3%
Helix content, PC [3]: 5 ± 2%
Helix content, Buffer [3]: 8 ± 2%

GRPRESGKKRKRKRKLKPT (listed as Homo sapiens) [GRP19]
PA + NaCl (CF release, liposome leakage) [1]: 5 ± 1
PA − NaCl (CF release, liposome leakage) [1]: 20 ± 2
PC + NaCl (CF release, liposome leakage) [2]: 4 ± 1
PC − NaCl (CF release, liposome leakage) [2]: 30 ± 12
antibacterial activity in vitro (bacteria): show antibacterial activity in vitro
Helix content, PA [3]: 8 ± 3%
Helix content, PC [3]: 8 ± 4%
Helix content, Buffer [3]: 9 ± 2%

HB-EGF: Human heparin-binding EGF-like growth factor (accession code Q99075)
difference in bacterial survival vs. control (E. coli bacteria): significant

KRKKKGKGLGKKRDPCLRKY [KRK20: A]
Erythrocytes Hemolysis (%) Mean (Erythrocytes): 2.25%

KRKKKGKGLGKKRLPCLRKY [KRK20: C]
Erythrocytes Hemolysis (%) Mean (Erythrocytes): 2.31%

KRKKKGKGLGKKRWPCLRKY [KRK20: G]
Erythrocytes Hemolysis (%) Mean (Erythrocytes): 2.29%

KRKKKGKGWGKKRDPCLRKY [KRK20: D]
Erythrocytes Hemolysis (%) Mean (Erythrocytes): 2.56%

KRKKKGKGWGKKRLPCLRKY [KRK20: E]
Erythrocytes Hemolysis (%) Mean (Erythrocytes): 2.73%

KRKKKGKGWGKKRWPCLRKY [KRK20: F]
Erythrocytes Hemolysis (%) Mean (Erythrocytes): 3.14%

KRKRKGKGLGKKKDPCLRKF [KRK20: B]
Erythrocytes Hemolysis (%) Mean (Erythrocytes): 2.26%

LKIKTKKVNTADQCANRCTRNKGL (listed as Homo sapiens) [LKI24]
PA + NaCl (CF release, liposome leakage) [1]: 2 ± 2
PA − NaCl (CF release, liposome leakage) [1]: 25 ± 4
PC + NaCl (CF release, liposome leakage) [2]: 6 ± 3
PC − NaCl (CF release, liposome leakage) [2]: 54 ± 4
Helix content, PA [3]: 14 ± 4%
Helix content, PC [3]: 9 ± 3%
Helix content, Buffer [3]: 13 ± 3%

LKKNGSCKRGPRTHYGQKAIL (human growth factor) [LKK21, FGF1_HUMAN aa 126-146]
PA − NaCl (CF release, liposome leakage) [1]: 4 ± 2
PC + NaCl (CF release, liposome leakage) [2]: 6 ± 2
PC − NaCl (CF release, liposome leakage) [2]: 26 ± 3
antibacterial activity in vitro (bacteria): shows antibacterial activity in vitro
Helix content, PA [3]: 10 ± 4%
Helix content, PC [3]: 13 ± 5%
Helix content, Buffer [3]: 11 ± 2%

LKRTGQYKLGSKTGPGQKAIL (listed as Homo sapiens) [LKR21, FGF2_HUMAN aa 127-147]
PA − NaCl (CF release, liposome leakage) [1]: 3 ± 1
PC − NaCl (CF release, liposome leakage) [2]: 2 ± 1

LLGDFFRKSKEKIGKEFKRIVQRIKDFLRNLVPRTES [LL-37, reference compound]
PA + NaCl (CF release, liposome leakage) [1]: 57 ± 6
PA − NaCl (CF release, liposome leakage) [1]: 100 ± 10
PC + NaCl (CF release, liposome leakage) [2]: 73 ± 7
PC − NaCl (CF release, liposome leakage) [2]: 100 ± 10
antimicrobial activity spectrum [4]: broad-spectrum antimicrobial activity
Helix content, PA [3]: 100 ± 10%
Helix content, PC [3]: 100 ± 10%
Helix content, Buffer [3]: 60 ± 10%

LNGKGAPRRGQKTRRKNTSAH (listed as Homo sapiens) [LNG21]
PA − NaCl (CF release, liposome leakage) [1]: 9 ± 5
PC − NaCl (CF release, liposome leakage) [2]: 12 ± 2

LNQKGIPVRGKKTKKEQKTAH (listed as Homo sapiens) [LNQ21, FGF7_HUMAN aa 167-187]
PA − NaCl (CF release, liposome leakage) [1]: 10 ± 1
PC − NaCl (CF release, liposome leakage) [2]: 2 ± 1

LRPVQVRKIEIVRRKPIFKKATVT (LRPVQVRKIEIVRKKPIFKKATVT; listed as Homo sapiens) [LRP24]
PA + NaCl (CF release, liposome leakage) [1]: 6 ± 3
PA − NaCl (CF release, liposome leakage) [1]: 44 ± 10
PC + NaCl (CF release, liposome leakage) [2]: 4 ± 4
PC − NaCl (CF release, liposome leakage) [2]: 33 ± 11
antibacterial activity in vitro (bacteria): show antibacterial activity in vitro
Helix content, PA [3]: 15 ± 3%
Helix content, PC [3]: 10 ± 4%
Helix content, Buffer [3]: 13 ± 3%

PKRKKKGGKNGKNRRNRKKKN (listed as Homo sapiens) [PKR21]
PA − NaCl (CF release, liposome leakage) [1]: 13 ± 8
PC + NaCl (CF release, liposome leakage) [2]: 6 ± 1
PC − NaCl (CF release, liposome leakage) [2]: 38 ± 3
antibacterial activity in vitro (bacteria): shows antibacterial activity in vitro
Helix content, PA [3]: 9 ± 4%
Helix content, PC [3]: 9 ± 3%
Helix content, Buffer [3]: 10 ± 2%

QRAKTPQTRVTIRTVRVRRPP (listed as Homo sapiens) [QRA21]
PA − NaCl (CF release, liposome leakage) [1]: 0 ± 1
PC − NaCl (CF release, liposome leakage) [2]: 10 ± 1
antibacterial activity in vitro (bacteria): show antibacterial activity in vitro

RVRRPPKGKHRKFHTHDKTA (RVRRPPKGKHRKFKHTHDKTA; listed as Homo sapiens) [RVR21]
PA + NaCl (CF release, liposome leakage) [1]: 8 ± 2
PA − NaCl (CF release, liposome leakage) [1]: 18 ± 8
PC + NaCl (CF release, liposome leakage) [2]: 6 ± 1
PC − NaCl (CF release, liposome leakage) [2]: 55 ± 2
antibacterial activity in vitro (bacteria): show antibacterial activity in vitro
Helix content, PA [3]: 6 ± 3%
Helix content, PC [3]: 11 ± 4%
Helix content, Buffer [3]: 8 ± 4%
